Experiments:
[1] = target: human emopamil binding protein and human 7-dehydrocholesterol reductase co-expressing cells (hEBP-DHCR7 membrane) (Homo sapiens (Human), UniProt Q15125); assay: Radioligand filter binding assay on hEBP-DHCR7 membrane; details: [3H]-(S)-6-(2-Methyl-3-(6-(trifluoromethyl)pyridin-3-yl)propyl)-2-thia-6-azaspiro[3.4]octane 2,2-dioxide radioligand, HEK293 membrane co-expressing hEBP and hDHCR7
In short: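 HEK293 cells transiently co-expressing human EBP and DHCR7 supplied whole-cell membranes (10 μg/well), incubated 3 h at 22 °C with [3H]-labelled spiro-octane dioxide ligand (added at 25 nM) and compound (0.06-5000 nM final, 8 doses, n=2). Bound ligand was collected on PEI-treated GF/B filters and counted by scintillation. IC50 was Hill-fitted from % inhibition and reported as Ki.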

[2] = system: EpiSC-derived OPCs; assay: In vitro phenotypic screening of OPCs (MBP staining, high-content imaging); format: cell-based, mouse; details: Mus musculus, 72 h, percentage of MBP+ oligodendrocytes, 3 days, 0.5 nM to 1000 nM; read-out: OPC EC50
In short: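 EpiSC-derived mouse OPCs seeded at 150,000/cm^2 on laminin in N2B27 without growth factors, treated 3 days at 37° C. with compound (8 points, 1000 nM to 0.5 nM). Fixed cells stained for MBP and DAPI and imaged; percentage of MBP+ oligodendrocytes fitted by Hill equation for EC50.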

human emopamil binding protein and human 7-dehydrocholesterol reductase co-expressing cells (hEBP-DHCR7 membrane), sequence (Q15125 whole entry): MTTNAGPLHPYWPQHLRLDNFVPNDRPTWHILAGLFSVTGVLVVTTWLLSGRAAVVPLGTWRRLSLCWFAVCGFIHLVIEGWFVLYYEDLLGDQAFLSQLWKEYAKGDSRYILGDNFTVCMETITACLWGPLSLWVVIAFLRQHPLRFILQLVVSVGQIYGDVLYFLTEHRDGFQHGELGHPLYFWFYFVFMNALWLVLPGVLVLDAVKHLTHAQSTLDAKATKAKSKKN

| SMILES | Ki [1] | EC50 [2] |
| --- | --- | --- |
| CC(C)n1nc(-c2cncc(OC(F)F)c2)cc1[C@H]1CC[C@@H](N2CCC3(C2)CS(=O)(=O)C3)CC1 [Compound 33B, (Cis)-6-(4-(3-(5-(Difluoromethoxy)pyridin-3-yl)-1-isopropyl-1H-pyrazol-5-yl)cyclohexyl)-2-thia-6-azaspiro[3.4]octane 2,2-dioxide] | 28 nM | 53 nM |
| CC(C)n1cc(C(F)(F)F)nc1[C@@H]1CC[C@@H](N2CCC3(C2)CS(=O)(=O)C3)C1 (single isomer, unassigned) [20B*] | 130 nM | 340 nM |
| Cc1cc(C(F)(F)F)cnc1N1CCC(N2CCC3(C2)CS(=O)(=O)C3)CC1 [Compound 7, 6-(1-(3-methyl-5-(trifluoromethyl)pyridin-2-yl)piperidin-4-yl)-2-thia-6-azaspiro[3.4]octane 2,2-dioxide] | 17.5 nM | 21 nM |
| Cc1cc(C(F)(F)F)ncc1N1CCC(N2CCC3(C2)CS(=O)(=O)C3)CC1 [Compound 28, 6-(1-(4-Methyl-6-(trifluoromethyl)pyridin-3-yl)piperidin-4-yl)-2-thia-6-azaspiro[3.4]octane 2,2-dioxide] | 30 nM | 64 nM |
| CC(C)n1nc(-c2cncc(OC(F)F)c2)cc1[C@H]1CC[C@H](N2CCC3(C2)CS(=O)(=O)C3)CC1 [Compound 33A, 6-((1r,4r)-4-(3-(5-(Difluoromethoxy)pyridin-3-yl)-1-isopropyl-1H-pyrazol-5-yl)cyclohexyl)-2-thia-6-azaspiro[3.4]octane 2,2-dioxide] | 34 nM | 29 nM |
| Cn1nc(C(F)(F)F)cc1[C@H]1CC[C@@H](N2CC[C@]3(CCS(=O)(=O)C3)C2)CC1 (single isomer, unassigned) [38A*] | 82 nM | 200 nM |
| CC(C)n1nc(C(F)(F)F)cc1[C@H]1CC[C@@H](N2CCC3(C2)CS(=O)(=O)C3)CC1 [Compound 8B, 6-((1s,4s)-4-(1-isopropyl-3-(trifluoromethyl)-1H-pyrazol-5-yl)cyclohexyl)-2-thia-6-azaspiro[3.4]octane 2,2-dioxide] | 32.9 nM | 240 nM |
| O=S1(=O)CC2(CCN([C@H]3CC[C@H](c4cc(C(F)(F)F)nn4C4CCC4)CC3)C2)C1 [Compound 23B, 6-((1r,4r)-4-(1-Cyclobutyl-3-(trifluoromethyl)-1H-pyrazol-5-yl)cyclohexyl)-2-thia-6-azaspiro[3.4]octane 2,2-dioxide] | 12 nM | 28 nM |
| O=S1(=O)CC2(CCN([C@@H]3CC[C@@H](c4ccc(C(F)(F)F)nc4)C3)C2)C1 (single isomer, unassigned) [Compound 11B, (Trans)-6-(3-(6-(Trifluoromethyl)pyridin-3-yl)cyclopentyl)-2-thia-6-azaspiro[3.4]octane 2,2-dioxide] | 35.9 nM | 35 nM |
| CCn1nc([C@H]2CC[C@H](N3CCC4(C3)CS(=O)(=O)C4)CC2)cc1C(F)(F)F [Compound 16, 6-((1r,4r)-4-(1-Ethyl-5-(trifluoromethyl)-1H-pyrazol-3-yl)cyclohexyl)-2-thia-6-azaspiro[3.4]octane 2,2-dioxide] | 52 nM | 41 nM |
| Cc1cc(C(F)(F)F)ncc1[C@H]1CC[C@@H](N2CCC3(C2)CS(=O)(=O)C3)CC1 [Compound 21A, 6-((1s,4s)-4-(4-Methyl-6-(trifluoromethyl)pyridin-3-yl)cyclohexyl)-2-thia-6-azaspiro[3.4]octane 2,2-dioxide] | 32 nM | 37 nM |
| O=S1(=O)CC2(CCN([C@@H]3CCCN(c4ccc(C(F)(F)F)cc4)C3)C2)C1 (single isomer, unassigned) [22A*] | 14 nM | 9.5 nM |
| O=S1(=O)CC2(CCN([C@H]3CC[C@@H](c4cc(C(F)(F)F)nn4C4CC4)CC3)CC2)C1 [Compound 40A, 7-((1r,4r)-4-(1-cyclopropyl-3-(trifluoromethyl)-1H-pyrazol-5-yl)cyclohexyl)-2-thia-7-azaspiro[3.5]nonane 2,2-dioxide] | 59 nM | 22 nM |
| O=S1(=O)CC2(CCN([C@H]3CC[C@@H](c4ccc(C(F)(F)F)nc4)C3)C2)C1 (single isomer, unassigned) [Compound 11A, (Cis)-6-(3-(6-(Trifluoromethyl)pyridin-3-yl)cyclopentyl)-2-thia-6-azaspiro[3.4]octane 2,2-dioxide] | 37.8 nM | 160 nM |
| CC(C)n1cc(C(F)(F)F)nc1[C@H]1CC[C@H](N2CCC3(C2)CS(=O)(=O)C3)C1 (single isomer, unassigned) [20A*] | 530 nM | > 1000 nM |
| O=S1(=O)CC2(CCN([C@@H]3CCN(c4ccc(C(F)(F)F)nc4)C3)C2)C1 (single isomer, unassigned) [9B*] | 245 nM | > 1000 nM |

| SMILES | Ki [1] | EC50 [2] |
| --- | --- | --- |
| CC(C)n1nc(C2CC2)nc1[C@H]1CC[C@H](N2CCC3(C2)CS(=O)(=O)C3)C1 (single isomer, unassigned) [18B*, 6-(3-(3-cyclopropyl-1-isopropyl-1H-1,2,4-triazol-5-yl)cyclopentyl)-2-thia-6-azaspiro[3.4]octane 2,2-dioxide] | 650 nM | 390 nM |
| O=S1(=O)CC2(CCN([C@H]3CC[C@H](c4ccc(C(F)(F)F)nc4)CC3)C2)C1 [Compound 14A, 6-((1r,4r)-4-(6-(Trifluoromethyl)pyridin-3-yl)cyclohexyl)-2-thia-6-azaspiro[3.4]octane 2,2-dioxide] | 59 nM | 16 nM |
| CC(C)n1nc(C(F)(F)F)cc1[C@@H]1CC[C@H](N2CCC3(C2)CS(=O)(=O)C3)C1 (single isomer, unassigned) [10C*] | 26.6 nM | 11 nM |
| O=S1(=O)CC2(CCN([C@@H]3CO[C@@H](c4ccc(C(F)(F)F)cc4)C3)C2)C1 (stereo in doubt) [19B*, 6-((3S,5R)-5-(4-(trifluoromethyl)phenyl)tetrahydrofuran-3-yl)-2-thia-6-azaspiro[3.4]octane 2,2-dioxide] | 20 nM | 49 nM |
| O=S1(=O)CC2(CCN([C@H]3CC[C@H](c4cc(C(F)(F)F)n(C5CCC5)n4)CC3)C2)C1 [Compound 24, 6-((1r,4r)-4-(1-cyclobutyl-5-(trifluoromethyl)-1H-pyrazol-3-yl)cyclohexyl)-2-thia-6-azaspiro[3.4]octane 2,2-dioxide] | 11 nM | 6 nM |
| O=S1(=O)CC2(CCN([C@H]3CC[C@H](c4cc(C(F)(F)F)nn4C4CC4)CC3)C2)C1 [Compound 12A, 6-((1r,4r)-4-(1-Cyclopropyl-3-(trifluoromethyl)-1H-pyrazol-5-yl)cyclohexyl)-2-thia-6-azaspiro[3.4]octane 2,2-dioxide] | 34 nM | 37 nM |
| Cn1nc(C(F)(F)F)cc1[C@H]1CC[C@H](N2CCC3(CC2)CS(=O)(=O)C3)CC1 [Compound 25B, 7-((1r,4r)-4-(1-methyl-3-(trifluoromethyl)-1H-pyrazol-5-yl)cyclohexyl)-2-thia-7-azaspiro[3.5]nonane 2,2-dioxide] | 270 nM | 87 nM |
| CC(C)n1nc(-c2cncc(C(F)(F)F)c2)cc1[C@@H]1CC[C@H](N2CCC3(C2)CS(=O)(=O)C3)C1 (single isomer, unassigned) [13B*] | 15 nM | 1.3 nM |
| O=S1(=O)CC2(CCN([C@H]3CC[C@H](c4cc(C(F)(F)F)nn4C4CC4)CC3)CC2)C1 [Compound 40B, 7-((1s,4s)-4-(1-cyclopropyl-3-(trifluoromethyl)-1H-pyrazol-5-yl)cyclohexyl)-2-thia-7-azaspiro[3.5]nonane 2,2-dioxide] | 183 nM | 71 nM |
| Cc1cc(C(F)(F)F)ncc1[C@H]1CC[C@H](N2CCC3(C2)CS(=O)(=O)C3)CC1 [Compound 21B, 6-((1r,4r)-4-(4-Methyl-6-(trifluoromethyl)pyridin-3-yl)cyclohexyl)-2-thia-6-azaspiro[3.4]octane 2,2-dioxide] | 46 nM | 120 nM |
| O=S1(=O)CC2(CCN(C3CCN(c4ccc(C(F)(F)F)nc4)CC3)C2)C1 [Compound 5, 6-(1-(6-(trifluoromethyl)pyridin-3-yl)piperidin-4-yl)-2-thia-6-azaspiro[3.4]octane 2,2-dioxide] | 148 nM | 190 nM |
| Cn1nc(C(F)(F)F)cc1[C@H]1CC[C@H](N2CCC3(C2)CS(=O)(=O)C3)CC1 [Compound 2B, 6-((1r,4r)-4-(1-methyl-3-(trifluoromethyl)-1H-pyrazol-5-yl)cyclohexyl)-2-thia-6-azaspiro[3.4]octane 2,2-dioxide] | 69.3 nM | 48 nM |
| O=S1(=O)CC2(CCN([C@H]3CC[C@@H](c4cc(C(F)(F)F)nn4C4CCC4)CC3)C2)C1 [Compound 23A, 6-((1s,4s)-4-(1-Cyclobutyl-3-(trifluoromethyl)-1H-pyrazol-5-yl)cyclohexyl)-2-thia-6-azaspiro[3.4]octane 2,2-dioxide] | 21 nM | 100 nM |
| CC(C)n1cc(C(F)(F)F)nc1[C@@H]1CC[C@H](N2CCC3(C2)CS(=O)(=O)C3)C1 (single isomer, unassigned) [20D*] | 39 nM | 260 nM |
| CC(C)n1nc(C2CC2)nc1[C@H]1CC[C@@H](N2CCC3(C2)CS(=O)(=O)C3)C1 (single isomer, unassigned) [18D*, 6-(3-(3-cyclopropyl-1-isopropyl-1H-1,2,4-triazol-5-yl)cyclopentyl)-2-thia-6-azaspiro[3.4]octane 2,2-dioxide] | 1180 nM | 430 nM |
